# Results: US20240156790A1, “COMPOUNDS, COMPOSITIONS, AND METHODS FOR MODULATING FERROPTOSIS AND TREATING EXCITOTOXIC DISORDERS” (THE TRUSTEES OF COLUMBIA UNIVERSITY IN THE CITY OF NEW YORK, priority 2018, published 2024)
# Read-outs that look alike come from different tables or passages of the source.
# Key:
# [1] = Microsomal stability, pig (Table 1); format: in vitro ADME; settings: liver microsomes; Pig: Göttingen Minipig; read-out: Microsomal Stability t1/2
# [2] = PHB4082 IP, IV Study (cyclodextrin/PEG/tween vehicle); format: in vivo, C57BL/6 mice; settings: both sexes, C57BL/6, mouse; for concentration at 2 h / concentration at 4 h: 10 mg/kg
# Description: C57BL/6 mice (8-weeks of age and ˜25 g weight) were weighed before injection and divided into groups of two male and female mice per cage. PHB4082 was dissolved in 5% DMSO/95% of 1:1 [(65% v/v of 25% w/v 2-hydroxypropyl-3-cyclodextrin (Cayman Chemical) dissolved in 20% EtOH, 30% v/v Poly(ethylene glycol)-400 (Sigma Aldrich 202398), 5% v/v Tween 80 (Fluka 59924)):MilliQ water] to create a 2 mg/mL solution. The same formulation without PHB4082 was used as a vehicle control. The solution was sterilized using a […] Steriflip filter unit (Thomas Scientific 1189Q46). Mice were dosed IP, and IV routes of administration and euthanized by CO2 asphyxiation for 3 min at 2 and 4 h after administration. To ensure that the vehicle was well-tolerated, four mice for each timepoint were treated with vehicle and euthanized 4 h and 24 h after administration. ˜0.5 mL of blood was collected via cardiac puncture and immediately put in K3 EDTA microtubes ([…] 41.1504.105) and kept on ice. Organs were harvested, placed in Eppendorf tubes, and frozen on dry ice. Blood samples were centrifuged for 10 min at 2,100×g at 4° C., then plasma was transferred to a clean tube and frozen on dry ice. Organ samples were weighed and placed in hard tissue homogenizing tubes (Omni International 19-628) and a volume of DEPC-treated nuclease-free water (IBI Scientific IB42200) was added to make a 500 mg/mL solution and homogenized using the Omni Bead Ruptor 4 at speed 5 for 30 seconds. Compound was extracted from plasma or organ homogenate by adding 900 μL acetonitrile to 100 μL plasma or organ homogenate. Samples were mixed by vortexing and allowed to extract overnight at 4° C. prior to mixing for at least 5 min by rotating at room temperature, vortexing, and sonicating for at least 30 second prior to centrifugation for 10 min at 4,000×g and 4° C. The supernatant was then transferred to a glass vial and analyzed by UPLC-MS described below. The base peak chromatogram was integrated and quantified by standard curve concurrently ran.
# To determine whether PHB4082 accumulated in brain preferentially over plasma, the log10(Brain/Plasma) ratio was calculated for each time-point with a log10(Brain/Plasma) >0 indicating preferential accumulation in brain over plasma. We observed that PHB4082 did slightly accumulate in brain over plasma as time progressed (FIG. 21B); however, at the time-point where PHB4082 preferentially accumulated in brain, the difference in concentration in the brain compared to plasma was low, indicated by the near 0 log values.
# [3] = TH-2-31 IP PK Study, 40 mg/kg; format: in vivo, C57BL/6 mice; settings: 40 mg/kg IP, up to eight hours
# Description: C57BL/6 mice (8-weeks of age and ˜25 g weight) were weighed before injection and divided into groups of 2 male and female mice per cage. TH-2-31 was dissolved in 5% DMSO/95% of 65% v/v of 25% w/v 2-hydroxypropyl-3-cyclodextrin (Cayman Chemical) dissolved in 20% EtOH, 30% v/v Poly(ethylene glycol)-400 (Sigma Aldrich 202398), 5% v/v Tween 80 (Fluka 59924) to create a 4 mg/mL solution. The same formulation without TH-2-31 was used as a vehicle control. The solution was sterilized using a […] Steriflip filter unit (Thomas Scientific 1189Q46). Mice were dosed IP and euthanized by CO2 asphyxiation for 3 min at 0, 1, 2, 4, and 8 h after administration. To ensure that the vehicle was well-tolerated 4 mice were treated with vehicle and euthanized 4 h after administration. ˜0.5 mL of blood was collected via cardiac puncture and immediately put in K3 EDTA microtubes ([…] 41.1504.105) and kept on ice. Organs were harvested, placed in Eppendorf tubes, and frozen on dry ice. Blood samples were centrifuged for 10 min at 2,100×g at 4° C., then plasma was transferred to a clean tube and frozen on dry ice. […] After drying, the samples were resuspended in 100 μL of methanol and analyzed by UPLC-MS described below. The concentration of TH-2-31 was determined against a standard curve with a linear fit and the data plot in GraphPad Prism 9 and fit with a one phase decay. […]
# [4] = brain, IP Administration, read-out: [PHB4082]brain
# [5] = brain, IV Administration, read-out: [PHB4082]brain
# [6] = plasma, IP Administration, read-out: [PHB4082]plasma
# [7] = plasma, IV Administration, read-out: [PHB4082]plasma
compound,measurement,setting,value
"CCOC(=O)c1ccc(NC2CCCCC2)c(N)c1 [Fer-1, Ferrostatin-1, reference compound]",half-life,[1],16.2 min
"Cc1noc(-c2ccc(NC3CCCCC3)c(NC3CCCCC3)c2)n1 [PHB4082, N1,N2-dicyclohexyl-4-(3-methyl-1,2,4-oxadiazol-5-yl)benzene-1,2-diamine]",log10 Kp (brain/plasma),"[2]; brain and plasma, other: intraperitoneally and intravenously, 10 mg/kg intraperitoneally and intravenously",< 0
same,concentration at 2 h,[2]; [4],114 ± 21 nM
same,concentration at 4 h,[2]; [4],99 ± 62 nM
same,concentration at 2 h,[2]; [5],557 ± 245 nM
same,concentration at 4 h,[2]; [5],176 ± 76 nM
same,concentration at 4 h,[2]; [6],306 ± 379 nM
same,concentration at 2 h,[2]; [7],634 ± 359 nM
same,concentration at 4 h,[2]; [7],281 ± 284 nM
same,concentration at 2 h,[2]; [6],957 ± 693 nM
"Cc1noc(-c2cnc(NC3CCCCC3)c(NC3CCCCC3)c2)n1 [TH-2-31, N^2,N^3-dicyclohexyl-5-(3-methyl-1,2,4-oxadiazol-5-yl)pyridine-2,3-diamine]","accumulation in plasma and brain, in words",[3],stably accumulate at micromolar concentrations in plasma and brain even eight hours after
